Like-named read-outs stand apart in the source and are kept apart here. Blank lines part the entries; values can stand above or below the compound they belong to.
What was measured:
Assay in all cases: stopped-flow absorption titration
Format in all cases: binding
[1] = molecular target: T1, BesC (Streptantibioticus cattleyicolor, UniProt F8JJ25)
[2] = molecular target: T1, BesC; remark: listed apart in the source
[3] = molecular target: T1, BesC; remark: listed apart in the source

T1 sequence (F8JJ25 whole entry): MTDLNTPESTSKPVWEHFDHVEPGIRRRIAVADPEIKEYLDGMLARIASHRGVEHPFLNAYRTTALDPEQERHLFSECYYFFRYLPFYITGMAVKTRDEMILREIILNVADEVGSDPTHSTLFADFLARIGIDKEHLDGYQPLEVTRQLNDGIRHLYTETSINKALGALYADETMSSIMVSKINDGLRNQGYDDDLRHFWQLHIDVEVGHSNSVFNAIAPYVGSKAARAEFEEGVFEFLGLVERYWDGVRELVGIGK

Kd [1]: < 30 µM
Structure (SMILES): NCCSC[C@H](N)C(=O)O [4-thia-L-Lys, S-(2-aminoethyl)-L-cysteine]

Structure (SMILES): N[C@@H](CCCCO)C(=O)O [6-OH-L-Nle]
Kd [2]: 10000 ± 1000 µM

Structure (SMILES): NCCCC[C@H](N)C(=O)O [L-Lys]
Kd [3]: 300 ± 100 µM

Source: publication PMC9047515 (Biochemistry, 2022)
